From article PMC9693575, “Isopropyl Amino Acid Esters Ionic Liquids as Vehicles for Non-Steroidal Anti-Inflammatory Drugs in Potential Topical Drug Delivery Systems with Antimicrobial Activity” (International Journal of Molecular Sciences, 2022)
Where two headings read alike, the source gives them in different places.

Key:
[1] = pKa / pKB by potentiometric acid-base titration and formation constant log(KS); conditions: calculated from pKA of acid and pKB of base
Method: Determination of formation constant pKs
Zabrze, Poland). For the measurement of pKA acids, 0.1 M NaOH was used. In order to
ester hydrochloride, HCl aqueous solution, was added in an amount that allowed reach-
After that, an acid-base titration was made out by adding dropwise 5 mM

Escherichia coli = experiment: Disc diffusion antimicrobial susceptibility test, Escherichia coli; format: cell-based; set-up: key to Inhibition diameter: -: no growth of the organism
Method: (§1) The plates were incubated for 24 h at 37 °C.

[2] = system: Staphylococcus epidermidis; experiment: Disc diffusion antimicrobial susceptibility test, Staphylococcus epidermidis; format: cell-based; set-up: key to Inhibition diameter: -: no growth of the organism
Method: as §1

Micrococcus Luteus = experiment: Disc diffusion antimicrobial susceptibility test, Micrococcus luteus; format: cell-based
[3] = DTG; cited from earlier work
[4] = Thermogravimetric analysis (thermal stability)
Method: The thermal stabilities of the obtained NSAIDs isopropyl ester amino acid salts were investigated. […] The beginning of thermal degradation was evaluated based on the value of onset of the TG curve, which occurs in the first phase of the process. […]
Thermogravimetric analysis (TG)
Thermogravimetric analysis was carried out using Netzsch Proteus Thermal Analy- […]
Samples of 5–8 mg were loaded in Al2O3 […]
ment was performed in an air atmosphere (25 cm3min−1) with nitrogen flow (10 cm3min−1) […]
Differential scanning calorimetry (DSC)
Phase transformation temperatures were determined on a PerkinElmer DSC-7 (Rot-gau, Germany). The samples of 3–5 mg were loaded on the aluminum pan with a crimped lid. Measurements were carried out in a nitrogen atmosphere (20 cm3 min-1). The rate of heating/cooling was 5°C min-1. […]
tained for 30 min inside the furnace, then cooled to 0°C to condition the sample and the crucible. After that, heating was conducted to the specified temperature, followed by cool-ing. Unless otherwise stated, two complete cycles of heating and cooling were performed.
The specified maximum temperature was individual for each compound, determined from TG analysis, and it was at least 10°C lower than the onset decomposition tempera-ture. Temperatures reported from DSC data are curve peaks, the melting points being endothermic upon heating and crystallization point being exothermic upon cooling. Lead, indium, tin, and zinc were used as standards to calibrate the temperature. Indium was used for enthalpy measurement calibration. […]

[5] = solution transferred to disc 25 mg cm^−3
[6] = solution transferred to disc 50 mg cm^−3
[7] = solution transferred to disc 100 mg cm^−3
[8] = solution transferred to disc 200 mg cm^−3
[9] = solution transferred to disc 400 mg cm^−3
[10] = solution transferred to disc 600 mg cm^−3
[11] = solution transferred to disc 1000 mg cm^−3
[12] = solution transferred to disc 800 mg cm^−3

For `CC(C)Cc1ccc(C(C)C(=O)O)cc1.CC(C)OC(=O)[C@@H](N)[C@@H](C)O` [[L-ThrOiPr][IBU], L-threonine isopropyl ester ibuprofenate], the “Log(KS) formation constant” value [1] was 6.47, the Inhibition diameter (Escherichia coli; [5]) was “-” and the Inhibition diameter (Escherichia coli; [6]) was “-”. For the same molecule, the Inhibition diameter (Escherichia coli; [7]) was “-”, the Inhibition diameter (Escherichia coli; [8]) was “-” and the Inhibition diameter (Escherichia coli; [9]) was “-”. For the same molecule, the Inhibition diameter (Escherichia coli; [10]) was “-”, the Inhibition diameter (Escherichia coli; [11]) was “-” and the Inhibition diameter [2, 5] was 7.5 ± 0.2 mm. For the same molecule, the Inhibition diameter [2, 6] was 10.5 ± 0.2 mm, the Inhibition diameter [2, 7] was 15.4 ± 0.1 mm and the Inhibition diameter [2, 8] was 16.9 ± 0.2 mm. The Inhibition diameter [2, 9] was 17.5 ± 0.2 mm, the Inhibition diameter [2, 10] was 18.3 ± 0.2 mm and the Inhibition diameter [2, 12] was 19.8 ± 1.4 mm. It also gave an Inhibition diameter [2, 11] of 23.2 ± 0.1 mm, an Inhibition diameter (Micrococcus Luteus; [5]) of 7.3 ± 0.2 mm and an Inhibition diameter (Micrococcus Luteus; [6]) of 10.4 ± 0.2 mm. For the same molecule, the Inhibition diameter (Micrococcus Luteus; [7]) was 15.5 ± 0.2 mm, the Inhibition diameter (Micrococcus Luteus; [8]) was 16.3 ± 0.1 mm and the Inhibition diameter (Micrococcus Luteus; [9]) was 17.0 ± 0.2 mm. The Inhibition diameter (Micrococcus Luteus; [10]) was 17.5 ± 0.1 mm, the Inhibition diameter (Micrococcus Luteus; [12]) was 18.2 ± 0.2 mm and the Inhibition diameter (Micrococcus Luteus; [11]) was 19.3 ± 0.2 mm. The “TDTGmax, maximum decomposition temperature” value [3] was 209.9 [50] °C.

With `CC(C)OC(=O)[C@@H](N)[C@@H](C)O.COc1ccc2cc([C@H](C)C(=O)O)ccc2c1` [[L-ThrOiPr][NAP], L-threonine isopropyl ester naproxenate] the “TTGonset, the onset of the thermal degradation” value [4] was 145.8 °C, the “TDTGmax, maximum decomposition temperature” value ([4]; DTG, air atmosphere, 10 °C min−1) was 295.3 °C and the Inhibition diameter (Escherichia coli; [5]) was “-”. For the same molecule, the Inhibition diameter (Escherichia coli; [6]) was “-”, the Inhibition diameter (Escherichia coli; [7]) was “-” and the Inhibition diameter (Escherichia coli; [8]) was “-”. For the same molecule, the Inhibition diameter (Escherichia coli; [9]) was “-”, the Inhibition diameter (Escherichia coli; [10]) was “-” and the Inhibition diameter (Escherichia coli; [11]) was “-”. The “inhibition zone (in words)” value ([2]; S. epidermidis, tested concentrations) was “no inhibition zone was observed”, the Inhibition diameter [2, 5] was “-” and the Inhibition diameter [2, 6] was “-”. The Inhibition diameter [2, 7] was “-”, the Inhibition diameter [2, 8] was “-” and the Inhibition diameter [2, 9] was “-”. For the same molecule, the Inhibition diameter [2, 10] was “-”, the Inhibition diameter [2, 12] was “-” and the Inhibition diameter [2, 11] was “-”. The Inhibition diameter (Micrococcus Luteus; [5]) was 6.2 ± 0.1 mm, the Inhibition diameter (Micrococcus Luteus; [6]) was 6.6 ± 0.1 mm and the Inhibition diameter (Micrococcus Luteus; [7]) was 6.9 ± 0.1 mm. The Inhibition diameter (Micrococcus Luteus; [8]) was 7.6 ± 0.1 mm, the Inhibition diameter (Micrococcus Luteus; [9]) was 8.5 ± 0.1 mm and the Inhibition diameter (Micrococcus Luteus; [10]) was 8.8 ± 0.2 mm. It also gave an Inhibition diameter (Micrococcus Luteus; [12]) of 9.6 ± 0.1 mm and an Inhibition diameter (Micrococcus Luteus; [11]) of 10.8 ± 0.5 mm.

For `CC(C)OC(=O)[C@@H](N)C(C)C.COc1ccc2cc([C@H](C)C(=O)O)ccc2c1` [[L-ValOiPr][NAP]], the “Log(KS) formation constant” value [1] was 5.89, the Inhibition diameter (Escherichia coli; [5]) was “-” and the Inhibition diameter (Escherichia coli; [6]) was “-”. The Inhibition diameter (Escherichia coli; [7]) was “-”, the Inhibition diameter (Escherichia coli; [8]) was “-” and the Inhibition diameter (Escherichia coli; [9]) was “-”. For the same molecule, the Inhibition diameter (Escherichia coli; [10]) was “-”, the Inhibition diameter (Escherichia coli; [11]) was “-” and the Inhibition diameter [2, 5] was “-”. For the same molecule, the Inhibition diameter [2, 6] was “-”, the Inhibition diameter [2, 7] was “-” and the Inhibition diameter [2, 8] was “-”. For the same molecule, the Inhibition diameter [2, 9] was “-”, the Inhibition diameter [2, 10] was “-” and the Inhibition diameter [2, 12] was 6.6 ± 0.3 mm. The Inhibition diameter [2, 11] was 7.4 ± 0.1 mm, the Inhibition diameter (Micrococcus Luteus; [5]) was 6.2 ± 0.1 mm and the Inhibition diameter (Micrococcus Luteus; [6]) was 6.3 ± 0.1 mm. It also gave an Inhibition diameter (Micrococcus Luteus; [7]) of 6.4 ± 0.1 mm, an Inhibition diameter (Micrococcus Luteus; [8]) of 7.2 ± 0.1 mm and an Inhibition diameter (Micrococcus Luteus; [9]) of 7.3 ± 0.1 mm. It also gave an Inhibition diameter (Micrococcus Luteus; [10]) of 7.4 ± 0.2 mm, an Inhibition diameter (Micrococcus Luteus; [12]) of 8.2 ± 0.2 mm and an Inhibition diameter (Micrococcus Luteus; [11]) of 8.6 ± 0.2 mm. The “TDTGmax, maximum decomposition temperature” value [3] was 275.8 [48] °C.
